The values below come from patent US20110136801A1, “Novel Compounds” (Dainippon Sumitomo Pharma Co. Ltd., priority 2009, published 2011).

The structures appear in SMILES notation.

For this assay, the target named is T1, human TLR7 (Homo sapiens, UniProt Q9NYK1).
T1 construct: expressed in transfected cells; host or cells: HEK293 cell line stably expressing the pNiFty2-SEAP reporter plasmid; TLR7 in pUNO vector, blasticidin selection
T1 sequence (Q9NYK1 27-1049): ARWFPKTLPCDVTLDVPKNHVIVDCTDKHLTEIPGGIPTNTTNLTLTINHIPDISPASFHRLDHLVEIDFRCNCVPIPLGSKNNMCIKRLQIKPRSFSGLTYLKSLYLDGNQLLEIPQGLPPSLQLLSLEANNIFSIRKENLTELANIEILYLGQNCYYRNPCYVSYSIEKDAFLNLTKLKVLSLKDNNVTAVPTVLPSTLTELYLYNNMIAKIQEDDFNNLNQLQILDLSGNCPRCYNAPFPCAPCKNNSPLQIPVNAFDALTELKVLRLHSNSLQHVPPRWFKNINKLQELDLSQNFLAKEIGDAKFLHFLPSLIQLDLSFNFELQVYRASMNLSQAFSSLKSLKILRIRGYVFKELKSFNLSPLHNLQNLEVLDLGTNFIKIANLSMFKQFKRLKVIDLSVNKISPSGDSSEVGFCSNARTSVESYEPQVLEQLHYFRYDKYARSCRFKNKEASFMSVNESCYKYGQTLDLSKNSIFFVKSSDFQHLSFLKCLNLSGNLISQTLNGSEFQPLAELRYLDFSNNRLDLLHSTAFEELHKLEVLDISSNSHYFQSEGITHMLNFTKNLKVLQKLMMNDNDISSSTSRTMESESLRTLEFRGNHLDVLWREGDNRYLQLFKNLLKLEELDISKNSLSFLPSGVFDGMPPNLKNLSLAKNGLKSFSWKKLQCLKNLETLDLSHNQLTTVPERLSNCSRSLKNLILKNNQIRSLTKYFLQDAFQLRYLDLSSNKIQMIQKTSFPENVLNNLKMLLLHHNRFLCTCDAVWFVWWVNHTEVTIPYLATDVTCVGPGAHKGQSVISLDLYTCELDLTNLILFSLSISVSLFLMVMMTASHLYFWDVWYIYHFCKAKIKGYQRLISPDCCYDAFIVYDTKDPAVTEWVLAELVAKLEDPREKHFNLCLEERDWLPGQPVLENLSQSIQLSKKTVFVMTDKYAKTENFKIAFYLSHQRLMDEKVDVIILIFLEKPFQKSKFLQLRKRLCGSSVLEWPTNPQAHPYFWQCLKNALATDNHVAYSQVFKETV
The assay is described as follows: Human TLR7 Assay (SEAP reporter in HEK293 cells).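 Further: Read-out is secreted alkaline phosphatase made under an NFkB/ELAM-1 composite promoter, reporting TLR7-triggered NFkB activation.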 The following applies: HEK293 cell line expressing human TLR7 and pNiFty2-SEAP reporter, overnight incubation at 37° C., 0.1% DMSO; read-out: hTLR7 EC50. The class given is cell-based.

A word on the EC50: it is the midpoint of the concentration-response curve.

Take `CCN(CC)CC(=O)N(CCCn1c(CCOC)nc2c(N)nc3ccccc3c21)Cc1cccc(OC2(C(=O)OC)CC2)c1` [Example 79, Methyl 1-{3-[(N-{3-[4-amino-2-(2-methoxyethyl)-1H-imidazo[4,5-c]quinolin-1-yl]propyl}-2-{diethylamino}acetamido)methyl]phenoxy}cyclopropanecarboxylate]: the EC50 turned out to be 51.8 nM.
With `CCOC(=O)COc1cccc(CN(CCCn2c(CCOC)nc3c(N)nc4ccccc4c32)C(=O)CN(CC)CC)c1OC` [Example 89, Ethyl 2-{3-[(N-{3-[4-amino-2-(2-methoxyethyl)-1H-imidazo[4,5-c]quinolin-1-yl]propyl}-2-{diethylamino}acetamido)methyl]-2-methoxyphenoxy}acetate] the figure was 95.7 nM; with `CCOC(=O)C(C)(C)Oc1cccc(CN(CCCCn2c(CCOC)nc3c(N)nc4ccccc4c32)CCCN2CCOCC2)c1` [Example 136, Ethyl 2-{3-[({4-[4-amino-2-(2-methoxyethyl)-1H-imidazo[4,5-c]quinolin-1-yl]butyl}{3-morpholinopropyl}amino)methyl]phenoxy}-2-methylpropanoate], 111 nM; with `CCOCc1nc2c(N)nc3ccccc3c2n1CCCN(Cc1cccc(OCC(=O)OC(C)C)c1)C(=O)CN1CCCC1` [Example 172, Isopropyl 2-{3-[(N-{3-[4-amino-2-(ethoxymethyl)-1H-imidazo[4,5-c]quinolin-1-yl]propyl}-2-{pyrrolidin-1-yl}acetamido)methyl]phenoxy}acetate], 434 nM.
With `CCOC(=O)COc1cccc(CN(CCCCn2c(CCOC)nc3c(N)nc4ccccc4c32)C(=O)NCCCN(C)C)c1` [Example 129, Ethyl 2-{3-[(1-{4-[4-amino-2-(2-methoxyethyl)-1H-imidazo[4,5-c]quinolin-1-yl]butyl}-3-{3-(dimethylamino)propyl}ureido)methyl]phenoxy}acetate], the EC50 worked out at 204 nM.
Take `CCN(CC)CC(=O)N(CCCCn1c(CCOC)nc2c(N)nc3ccccc3c21)Cc1cccc(OCC(=O)OC(C)(C)C)c1` [Example 48, tert-Butyl 2-{3-[(N-{4-[4-amino-2-(2-methoxyethyl)-1H-imidazo[4,5-c]quinolin-1-yl]butyl}-2-{diethylamino}acetamido)methyl]phenoxy}acetate]: the EC50 was 24.7 nM.
With `COCCc1nc2c(N)nc3ccccc3c2n1CCCCN(CCCN1CCOCC1)Cc1cccc(OCC(=O)OC(C)C)c1` [Example 133, Isopropyl 2-{3-[({4-[4-amino-2-(2-methoxyethyl)-1H-imidazo[4,5-c]quinolin-1-yl]butyl}{3-morpholinopropyl}amino)methyl]phenoxy}acetate] the figure was 114 nM; with `CCN(C)CC(=O)N(CCCn1c(CCOC)nc2c(N)nc3ccccc3c21)Cc1cccc(OCC(=O)OC(C)C)c1` [Example 114, Isopropyl 2-{3-[(N-{3-[4-amino-2-(2-methoxyethyl)-1H-imidazo[4,5-c]quinolin-1-yl]propyl}-2-{ethyl(methyl)amino}acetamido]methyl)phenoxy}acetate], 67.8 nM; with `CCOC(=O)C(C)(C)Oc1cccc(CN(CCn2c(CCOC)nc3c(N)nc4ccccc4c32)C(=O)CN(CC)CC)c1` [Example 106, Ethyl 2-{3-[(N-{2-[4-amino-2-(2-methoxyethyl)-1H-imidazo[4,5-c]quinolin-1-yl]ethyl}-2-{diethylamino}acetamido)methyl]phenoxy}-2-methylpropanoate], greater than 10000 nM.
With `CCCCc1nc2c(N)nc3ccccc3c2n1CCCN(Cc1cccc(OC(C)(C)C(=O)OCC)c1)C(=O)CN(C)C` [Example 155, Ethyl 2-[3-({N-[3-(4-amino-2-butyl-1H-imidazo[4,5-c]quinolin-1-yl)propyl]-2-(dimethylamino)acetamido}methyl)phenoxy]-2-methylpropanoate] the figure was 235 nM; with `CCOC(=O)COc1cccc(CN(CCCn2c(CCOC)nc3c(N)nc4ccccc4c32)C(=O)CN(C)C)c1` [Example 33, Ethyl 2-{3-[(N-{3-[4-amino-2-(2-methoxyethyl)-1H-imidazo[4,5-c]quinolin-1-yl]propyl}-2-(dimethylamino)acetamido)methyl]phenoxy}acetate], 177 nM; with `CCN(CC)CC(=O)N(CCCn1c(CCOC)nc2c(N)nc3ccccc3c21)Cc1cccc(OCC(=O)OCCO)c1` [Example 30, 2-Hydroxyethyl 2-{3-[(N-{3-[4-amino-2-(2-methoxyethyl)-1H-imidazo[4,5-c]quinolin-1-yl]propyl}-2-(diethylamino)acetamido)methyl]phenoxy}acetate], 1460 nM.
On to `CCOCc1nc2c(N)nc3ccccc3c2n1CCCN(Cc1cccc(OCC(=O)OC(C)C)c1F)C(=O)CN(CC)CC` [Example 166, Isopropyl 2-{3-[(N-{3-[4-amino-2-(ethoxymethyl)-1H-imidazo[4,5-c]quinolin-1-yl]propyl}-2-{diethylamino}acetamido)methyl]-2-fluorophenoxy}acetate], for which the 50% effective concentration (EC50) was found to be 475 nM.
As for `COCCc1nc2c(N)nc3ccccc3c2n1CCCN(Cc1cccc(OCC(=O)OC(C)C)c1)C(=O)CN(C)CCOC` [Example 115, Isopropyl 2-{3-[(N-{3-[4-amino-2-(2-methoxyethyl)-1H-imidazo[4,5-c]quinolin-1-yl]propyl}-2-{(2-methoxyethyl)(methyl)amino}acetamido)methyl]phenoxy}acetate], the figure is 173 nM; as for `CCCCc1nc2c(N)nc3ccccc3c2n1CCCN(Cc1cccc(OCC(=O)OC)c1)C(=O)CN1CCN(CCOC)CC1` [Example 12, Methyl {3-[([3-(4-amino-2-butyl-1H-imidazo[4,5-c]quinolin-1-yl)propyl]{[4-(2-methoxyethyl)piperazin-1-yl]acetyl}amino)methyl]phenoxy}acetate], 432 nM.
For the molecule `CCN(CC)CC(=O)N(CCCn1c(CCOC)nc2c(N)nc3ccccc3c21)Cc1ccc(F)c(OCC(=O)OC)c1` [Example 120, Methyl 2-{5-[(N-{3-[4-amino-2-(2-methoxyethyl)-1H-imidazo[4,5-c]quinolin-1-yl]propyl}-2-{diethylamino}acetamido)methyl]-2-fluorophenoxy}acetate], the EC50 came to 278 nM.
For the molecule `CCOC(=O)C(C)(C)Oc1cccc(CN(CCCn2c(CCOC)nc3c(N)nc4ccccc4c32)C(=O)CN(C)C)c1` [Example 148, Ethyl 2-{3-[(N-{3-[4-amino-2-(2-methoxyethyl)-1H-imidazo[4,5-c]quinolin-1-yl]propyl}-2-{dimethylamino}acetamido)methyl]phenoxy}-2-methylpropanoate], the concentration giving a half-maximal response (EC50) was determined as 115 nM.
With `CCN(CC)CC(=O)N(CCCn1c(CCOC)nc2c(N)nc3ccccc3c21)Cc1cccc(OCC(=O)OCCOC)c1` [Example 29, 2-Methoxyethyl 2-{3-[(N-{3-[4-amino-2-(2-methoxyethyl)-1H-imidazo[4,5-c]quinolin-1-yl]propyl}-2-(diethylamino)acetamido)methyl]phenoxy}acetate] the figure was 174 nM; with `CCCc1nc2c(N)nc3ccccc3c2n1CCCN(Cc1cccc(OCC(=O)OC(C)C)c1)C(=O)CN(CC)CC` [Example 160, Isopropyl 2-[3-({N-[3-(4-amino-2-propyl-1H-imidazo[4,5-c]quinolin-1-yl)propyl]-2-(diethylamino)acetamido}methyl)phenoxy]acetate], 260 nM; with `CCCCc1nc2c(N)nc3ccccc3c2n1CCCN(Cc1cccc(OCC(=O)OC(C)C)c1)C(=O)CN(CC)CC` [Example 157, Isopropyl 2-[3-({N-[3-(4-amino-2-butyl-1H-imidazo[4,5-c]quinolin-1-yl)propyl]-2-(diethylamino)acetamido}methyl)phenoxy]acetate], 100 nM.
For the molecule `COCCc1nc2c(N)nc3ccccc3c2n1CCCCN(CCN(C)C)Cc1cccc(OC(C)(C)C(=O)OC)c1` [Example 135, Methyl 2-{3-[({4-[4-amino-2-(2-methoxyethyl)-1H-imidazo[4,5-c]quinolin-1-yl]butyl}{2-(dimethylamino)ethyl}amino)methyl]phenoxy}-2-methylpropanoate], the EC50 amounted to 16.6 nM.
With `CCN(CC)CC(=O)N(CCCn1c(CCOC)nc2c(N)nc3ccccc3c21)Cc1ccc(OC)c(OCC(=O)OC)c1` [Example 63, Methyl 2-{5-[(N-{3-[4-amino-2-(2-methoxyethyl)-1H-imidazo[4,5-c]quinolin-1-yl]propyl}-2-{diethylamino}acetamido)methyl]-2-methoxyphenoxy}acetate] the figure was 212 nM.
